Data from patent US20220033406A1, “C[…] AS ANTI-VIRALS” (priority 2018, published 2022).

Tests used:
[1] = biological target: T1, Recombinant full-length HIV-1 Reverse Transcriptase (HIVrt) (Human immunodeficiency virus type 1 group M subtype B, UniProt P04585); assay: Inhibition of HIV reverse transcriptase (RdDp assay); assay type: biochemical; settings: 1 nM HIVrt, 30° C., 40 min, 3H-TTP incorporation; Table 3 triphosphates
T1 construct: Recombinant full-length HIV-1 Reverse Transcriptase (HIVrt); purchased Abcam ab63979
Experimental: Recombinant full-length HIV-1 Reverse Transcriptase (HIVrt) was purchased from Abcam, catalog #ab63979. The last 385 nucleotide region of the HCV anti-genome complementary to the 5′ untranslated region (c5′UTR) was synthesized using T7 RNA polymerase Megascript kit from Ambion (Cat #AM1333). A DNA oligo served as an internal initiation primer and was purchased from IDT. Unless otherwise specified, reaction samples consisted of 20 nM c5′UTR RNA, 100 nM DNA primer, and 1 nM HIVrt, mixed together in a buffer containing 50 mM Tris pH 7.5, 100 mM KCl, 4 mM dithiothreitol (DTT), and 12.5 mM MgCl2. Reactions were initiated at 30° C. by adding 0.1 μM adenosine triphosphate (dATP), 0.1 μM cytosine triphosphate (dCTP), 1 μM guanosine triphosphate (dGTP), and 0.32 μM ^3H-thymidine triphosphate (^3H-TTP), in a final volume of 50 μL. After 40-mins incubation, the reaction was terminated by adding 60 μL of chilled 20% (w/v) trichloroacetic acid with 500 μM ATP to precipitate nucleic acids. After incubation at 4° C. for 1 h, the sample underwent filtration on a multiscreen BV […] 96-well plate (Millipore). 40 μL Microscint-20 (Perkin Elmer) was added to the well and the counts in the sample were determined by a Trilux Microbeta microplate scintillation reader (Wallac).
All data were analyzed with GraphPad Prism. The compound concentration at which the enzyme-catalyzed rate was reduced by 50% (IC50) was calculated by fitting the data to the equation Y=% Min+(% Max−% Min)/(1+X/IC50), where Y corresponds to the percent relative enzyme activity, % Min is the residual relative activity at saturating compound concentration, % Max is the relative maximum enzyme activity, and X corresponds to the compound concentration. The Ki was calculated using the Cheng-Prusoff equation assuming competitive inhibition relative to natural dNTP incorporation: K=IC50/(1+[dNTP]/Km), where [dNTP] is the concentration of natural dNTP and Km is the apparent Km for dNTP. The standard HIVrt RNA-dependent DNA polymerization (RdDp) assay was used to determine the IC50 values.

[2] = biological target: T2, Recombinant full-length HBV polymerase (HBVpol) (Hepatitis B virus genotype D subtype ayw, UniProt P03156); assay: Inhibition of HBV polymerase (RdDp assay); assay type: biochemical; settings: HBVpol expressed in SF9 cells, 30° C., 120 min, 3H-TTP incorporation; Table 3 triphosphates; read-out: HBVrt IC50
T2 construct: Recombinant full-length HBV polymerase(HBVpol) was expressed in SF9 cells; made in house; host or cells: SF9 insect cells
T2 sequence (P03156 whole entry): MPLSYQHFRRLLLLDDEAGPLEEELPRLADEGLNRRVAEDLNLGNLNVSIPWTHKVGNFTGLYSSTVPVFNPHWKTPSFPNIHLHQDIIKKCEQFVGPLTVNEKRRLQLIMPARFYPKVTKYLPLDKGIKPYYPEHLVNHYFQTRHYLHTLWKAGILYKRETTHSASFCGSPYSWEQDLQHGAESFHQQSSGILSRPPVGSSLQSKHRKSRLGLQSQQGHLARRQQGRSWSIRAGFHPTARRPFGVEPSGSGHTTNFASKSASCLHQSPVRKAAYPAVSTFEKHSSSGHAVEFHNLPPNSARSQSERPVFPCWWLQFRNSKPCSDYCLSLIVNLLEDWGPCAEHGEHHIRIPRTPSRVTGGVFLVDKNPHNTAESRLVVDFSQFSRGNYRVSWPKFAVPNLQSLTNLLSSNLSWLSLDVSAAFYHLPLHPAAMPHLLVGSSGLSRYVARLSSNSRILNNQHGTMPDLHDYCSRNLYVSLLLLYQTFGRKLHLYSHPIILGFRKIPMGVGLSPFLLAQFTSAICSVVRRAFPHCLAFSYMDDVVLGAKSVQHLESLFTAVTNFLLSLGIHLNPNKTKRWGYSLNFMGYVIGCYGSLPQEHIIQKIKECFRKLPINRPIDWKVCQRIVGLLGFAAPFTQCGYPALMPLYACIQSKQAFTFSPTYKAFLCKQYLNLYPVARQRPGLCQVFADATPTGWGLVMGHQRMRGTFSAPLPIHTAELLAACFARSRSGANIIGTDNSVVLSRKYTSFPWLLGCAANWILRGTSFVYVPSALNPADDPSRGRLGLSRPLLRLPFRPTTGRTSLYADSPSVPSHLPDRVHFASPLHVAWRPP

`C=C1[C@H](COP(=O)(O)OP(=O)(O)OP(=O)(O)O)[C@@H](O)C[C@@H]1n1ccc2c(N)ncnc21` [Example 22, ((1R,3S,5S)-3-(4-Amino-7H-pyrrolo[2,3-d]pyrimidin-7-yl)-5-hydroxy-2-methylenecyclopentyl)methyl Tetrahydrogen Triphosphate] was tested, and the IC50 [1] was 158 nM.

Work on `C=C1[C@H](COP(=O)(O)OP(=O)(O)OP(=O)(O)O)[C@@H](O)C[C@@H]1n1ccc2c(=O)[nH]c(N)nc21` [Example 23, ((1R,3S,5S)-3-(2-Amino-4-oxo-3,4-dihydro-7H-pyrrolo[2,3-d]pyrimidin-7-yl)-5-hydroxy-2-methylenecyclopentyl)methyl Tetrahydrogen Triphosphate] yielded an IC50 [2] of 8.8 nM and an IC50 [1] of 383 nM.

With `C=C1[C@@H](n2cc(C)c(=O)[nH]c2=O)C[C@H](O)[C@@]1(F)COP(=O)(O)OP(=O)(O)OP(=O)(O)O` [Example 24, ((1S,3S,5S)-1-Fluoro-5-hydroxy-3-(5-methyl-2,4-dioxo-3,4-dihydropyrimidin-1(2H)-yl)-2-methylenecyclopentyl)methyl Tetrahydrogen Triphosphate] the IC50 [2] was 2.9 nM and the IC50 [1] was 267 nM.

With `C=C1[C@@H](n2cnc3c(=O)[nH]c(N)nc32)C[C@H](O)[C@@]1(F)COP(=O)(O)OP(=O)(O)OP(=O)(O)O` [Example 25, ((1S,3S,5S)-3-(2-Amino-6-oxo-1,6-dihydro-9H-purin-9-yl)-1-fluoro-5-hydroxy-2-methylenecyclopentyl)methyl Tetrahydrogen Triphosphate] the IC50 [2] was 9.9 nM and the IC50 [1] was 251 nM.

For `C=C1[C@@H](n2cnc3c(N)ncnc32)C[C@H](O)[C@@]1(F)COP(=O)(O)OP(=O)(O)OP(=O)(O)O` [Example 26, ((1S,3S,5S)-3-(6-Amino-9H-purin-9-yl)-1-fluoro-5-hydroxy-2-methylenecyclopentyl)methyl Tetrahydrogen Triphosphate], the IC50 [2] was 8.2 nM and the IC50 [1] was 81 nM.

With `C=C1[C@@H](n2ccc3c(N)ncnc32)C[C@H](O)[C@@]1(F)COP(=O)(O)OP(=O)(O)OP(=O)(O)O` [Example 27, ((1S,3S,5S)-3-(4-Amino-7H-pyrrolo[2,3-d]pyrimidin-7-yl)-1-fluoro-5-hydroxy-2-methylenecyclopentyl)methyl Tetrahydrogen Triphosphate] the IC50 [2] was 7.2 nM and the IC50 [1] was 65.9 nM.

`C=C1[C@@H](n2cnc3c(=O)[nH]c(N)nc32)C[C@H](O)[C@@]1(CF)COP(=O)(O)OP(=O)(O)OP(=O)(O)O` [Example 28, ((1S,3S,5S)-3-(2-Amino-6-oxo-1,6-dihydro-9H-purin-9-yl)-1-(fluoromethyl)-5-hydroxy-2-methylenecyclopentyl)methyl Tetrahydrogen Triphosphate] gave an IC50 [1] of 749 nM.

Work on `C=C1[C@@H](n2ccc(N)nc2=O)C[C@H](O)[C@@]1(CF)COP(=O)(O)OP(=O)(O)OP(=O)(O)O` [Example 29, ((1S,3S,5S)-3-(4-Amino-2-oxopyrimidin-1(2H)-yl)-1-(fluoromethyl)-5-hydroxy-2-methylenecyclopentyl)methyl Tetrahydrogen Triphosphate] yielded an IC50 [2] of 380 nM and an IC50 [1] of 326 nM.

In the case of `C=C1[C@@H](n2cc(C)c(=O)[nH]c2=O)C[C@H](O)[C@@]1(CF)COP(=O)(O)OP(=O)(O)OP(=O)(O)O` [Example 30, ((1S,3S,5S)-1-(Fluoromethyl)-5-hydroxy-3-(5-methyl-2,4-dioxo-3,4-dihydropyrimidin-1(2H)-yl)-2-methylenecyclopentyl)methyl Tetrahydrogen Triphosphate], the IC50 [1] is reported as 1330 nM.

`C=C1[C@@H](n2cnc3c(N)ncnc32)C[C@H](O)[C@@]1(CCl)COP(=O)(O)OP(=O)(O)OP(=O)(O)O` [Example 31, ((1S,3S,5S)-3-(6-Amino-9H-purin-9-yl)-1-(chloromethyl)-5-hydroxy-2-methylenecyclopentyl)methyl Tetrahydrogen Triphosphate] was tested, and the IC50 [1] was 363 nM.

In the case of `C=C1[C@@H](n2cc(C)c(=O)[nH]c2=O)C[C@H](O)[C@@]1(C#N)COP(=O)(O)OP(=O)(O)OP(=O)(O)O` [Example 32, ((1S,3S,5S)-1-Cyano-5-hydroxy-3-(5-methyl-2,4-dioxo-3,4-dihydropyrimidin-1(2H)-yl)-2-methylenecyclopentyl)methyl Tetrahydrogen Triphosphate], the IC50 [2] is reported as > 1000 nM and the IC50 [1] is reported as 476 nM.

In the case of `C=C1[C@@H](n2ccc(N)nc2=O)C[C@H](O)[C@@]1(C#N)COP(=O)(O)OP(=O)(O)OP(=O)(O)O` [Example 33, ((1S,3S,5S)-3-(4-Amino-2-oxopyrimidin-1(2H)-yl)-1-cyano-5-hydroxy-2-methylenecyclopentyl)methyl Tetrahydrogen Triphosphate], the IC50 [2] is reported as 220 nM and the IC50 [1] is reported as 77.9 nM.

For `C=C1[C@@H](n2cnc3c(N)ncnc32)C[C@H](O)[C@@]1(C#N)COP(=O)(O)OP(=O)(O)OP(=O)(O)O` [Example 34, ((1S,3S,5S)-3-(6-Amino-9H-purin-9-yl)-1-cyano-5-hydroxy-2-methylenecyclopentyl)methyl Tetrahydrogen Triphosphate], the IC50 [1] was > 10000 nM.

Molecule `C=C1[C@@H](n2cnc3c(=O)[nH]c(N)nc32)C[C@H](O)[C@@]1(C#N)COP(=O)(O)OP(=O)(O)OP(=O)(O)O` [Example 35, ((1S,3S,5S)-3-(2-Amino-6-oxo-1,6-dihydro-9H-purin-9-yl)-1-cyano-5-hydroxy-2-methylenecyclopentyl)methyl Tetrahydrogen Triphosphate] has an IC50 [1] of 260 nM.

For `C#C[C@]1(COP(=O)(O)OP(=O)(O)OP(=O)(O)O)C(=C)[C@@H](n2cnc3c(N)ncnc32)C[C@@H]1O` [Example 36], the IC50 [1] was 33.1 nM.

In the case of `C=C[C@]1(COP(=O)(O)OP(=O)(O)OP(=O)(O)O)C(=C)[C@@H](n2cnc3c(N)ncnc32)C[C@@H]1O` [Example 37, ((1R,3S,5S)-3-(6-Amino-9H-purin-9-yl)-5-hydroxy-2-methylene-1-vinylcyclopentyl)methyl Tetrahydrogen Triphosphate], the IC50 [1] is reported as > 10000 nM.
